Assay results from paper PMC7570852, “Ruthenium(II)/(III) DMSO-Based Complexes of 2-Aminophenyl Benzimidazole with In Vitro and In Vivo Anticancer Activity” (Molecules, 2020).
Marks after values point to notes of the source that are not given here.

What was measured:
[1] = test system: human colorectal cancer (Caco2) cells; test: MTT cell viability assay, Caco2; type: cell-based
Procedure: The cytotoxic effect of the Hapbim ligand and its complexes (1) and (2) on human breast cancer (MCF7), human colorectal cancer (Caco2), and human normal liver (THLE-2) cell lines was evaluated by the MTT assay. The cells were cultured in a 96-well plate (1 × 10^4 cells/well, 100 μL/well) containing DMEM medium provided with 10% fetal bovine serum, and 1% penicillin/streptomycin. Then, the cells were incubated at 37 °C for 24 h in a CO2 incubator under 5% CO2, 95% air until reaching a confluence of 70–80%. A 20 μL volume of each compound at different concentrations (from 5 to 400 μM for the cancer cell and from 600 to 1000 μM for the normal cells) was added and the cells were re-incubated for a further 24 h. After the incubation period, the cells were incubated again with 5 mg/mL of MTT for 4 h and then the medium was replaced with 100 μL DMSO and vortexed for 20 min. Finally, the absorbance was recorded at 570 nm using the microplate reader. […] To calculate the cell inhibition percentage, the following equation was used:% Cell inhibition = 100 − % cell viability ((At − Ab)/(Ac − Ab)) × 100%)(4) where At is the absorbance value of tested compound; Ab is the absorbance value of blank; Ac is the absorbance value of the control.

Caco2 cells = test: Cell-cycle analysis by flow cytometry (PI), Caco2; type: cell-based, human; conditions: Caco2, 117.6 μg/mL, 24 h
Procedure: The Ru(III) complex (2) (117.6 μg/mL) was added to MCF7 and Caco2 cells at a confluence of 70–80% and incubated for 24 h (in a CO2 incubator). The cells were then digested with warm trypsin-EDTA + warm PBS-EDTA (0.25%) (500 + 500 μL) with incubation for 10 min at 37 °C. The mixture was centrifuged (450 rpm) for 5 min, then the supernatant was removed. The mixture was washed twice in warm PBS and the cell pellet was re-suspended in 500 µl warm PBS, centrifuged and the supernatant decanted. A volume of 150 μL PBS + 350 μL ice-cold 70% ethanol was added and incubated at 4 °C for 1 h to fix the cells. To remove ethanol, the mixture was centrifuged at 350 rpm for 10 min and then the supernatant was removed. The mixture was washed twice in warm PBS and the cells were re-suspended in 500 μL of warm PBS, centrifuged, and the supernatant was removed. The cells were resuspended in 100 μL PBS and stored at 4 °C for up to four days. In darkness, the cells were stained with 100 µL of propidium iodide (PI) solution + 50 µL RNase A solution (100 µg/mL) and incubated in darkness for 30–60 min. The stained cells were read in an Attune flow cytometer (Applied Bio-system, Foster City, CA, USA).

[2] = Serum liver and kidney function tests, healthy mice; type: in vivo; conditions: mean ± SEM
Procedure: The mice were divided into the following eight groups (10 mice in each group): • Control group: Mice were intraperitoneally injected with a vehicle (2% DMSO + sterile saline) for 12 days. • I, II, and III control groups: Healthy normal mice were intraperitoneally injected with 6, 12, and 18 mg/kg of complex (2), respectively, for 12 days. • EAC group: Mice were intraperitoneally injected by a single dose of 2.5 × 10^6 viable Ehrlich ascites carcinoma (EAC) cells in PBS. In brief, EAC cells were withdrawn from the EAC mouse’s intraperitoneal cavity, washed, and centrifuged three times with sterile saline. Then, the pellets were suspended in sterile PBS and counted by the trypan blue exclusion assay, which confirmed that the viability of the cells was 98%. • I, II, and III treated groups: Firstly, 30 healthy mice were intraperitoneally injected with a single dose of 2.5 × 10^6 viable EAC cells. After one day; the mice were divided into I, II, and III treated groups (10 mice each group), intraperitoneally injected with 6, 12, and 18 mg/kg Ru(III) complex, respectively, for 12 days.
The animals were monitored for EAC growth by measuring abdominal size. At the end of the experiment all animals were fasted overnight then sacrificed. Serum samples were collected to study the biological parameters such as liver and kidney function as well as antioxidant enzyme activity. Liver samples from each group were frozen immediately in liquid nitrogen for molecular analysis.
Liver function tests. Serum GPT and GOT activities were measured by the method of Murray with a standard kit. The enzyme activities were estimated by measuring the decrease in absorbance of NADH at 340 nm. Bilirubin concentration was estimated by the colorimetric method of Kaplan et al.. Albumin concentration was measured colorimetrically by the color change of bromocresol from yellow-green to green-blue.
Kidney function tests. Creatinine was estimated colorimetrically by reacting with alkaline picrate forming a red complex. Urea was hydrolyzed enzymatically into ammonia which reacts with several compounds to form a green complex that can be measured colorimetrically. Uric acid was estimated by the enzymatic method of Schultz.

[3] = II control 12 mg/kg i.p. 12 days
[4] = III control 18 mg/kg i.p. 12 days

For `CS(C)=O.Nc1ccccc1-c1nc2ccccc2[nH]1.O.[Cl][Ru]([Cl])[Cl]` [(2), [Ru(III)Cl3(DMSO)(Hapbim)]·H2O], the IC50 ([1]; MTT, 24 h) was 250 ± 10 µM, the “IC50 Caco2” value ([1]; MTT, 24 h) was 129 ± 8 µg/mL and the “Therapeutic index: IC50 of THLE-2 cell/IC50 of Caco2” value ([1]; in vitro) was 9.95. For the same compound, the “cells in G0/G1 phase” value (Caco2 cells) was 18%, the “cells in G2/M phase” value (Caco2 cells) was 62% and the “cells in S phase” value (Caco2 cells) was 20%. The Albumin ([2]; I control 6 mg/kg i.p. 12 days) was 2.3 ± 0.1 g/dL, the Bilirubin ([2]; I control 6 mg/kg i.p. 12 days) was 0.15 ±0.02 ^b mg/dL and the Creatinine ([2]; I control 6 mg/kg i.p. 12 days) was 0.37 ±0.1 ^b mg/dL. The GOT ([2]; I control 6 mg/kg i.p. 12 days) was 41.8 ± 2.9 ^b U/L, the GPT ([2]; I control 6 mg/kg i.p. 12 days) was 15.6 ± 1.6 ^b U/L and the Urea ([2]; I control 6 mg/kg i.p. 12 days) was 33.5 ± 0.7 ^b mg/dL. The “Uric Acid” value ([2]; I control 6 mg/kg i.p. 12 days) was 2.9 ± 0.1 ^b mg/dL, the Albumin [2, 3] was 2.7 ± 0.1 ^b g/dL and the Bilirubin [2, 3] was 0.13 ± 0.02 ^b mg/dL. For the same compound, the Creatinine [2, 3] was 0.7 ± 0.02 mg/dL, the GOT [2, 3] was 54.9 ± 2.2 U/L and the GPT [2, 3] was 17.2 ± 0.5 ^b U/L. The Urea [2, 3] was 31.7 ± 1.2 ^b mg/dL, the “Uric Acid” value [2, 3] was 2.97 ± 0.1 ^b mg/dL and the Albumin [2, 4] was 2.3 ± 0.1 g/dL. It also gave a Bilirubin [2, 4] of 0.26 ± 0.02 mg/dL, a Creatinine [2, 4] of 0.75 ± 0.02 mg/dL and a GOT [2, 4] of 68.8 ± 3.6 U/L. The GPT [2, 4] was 19.6 ± 0.3 U/L, the Urea [2, 4] was 36.7 ± 1.6 ^b mg/dL and the “Uric Acid” value [2, 4] was 2.77 ± 0.1 ^b mg/dL.
